Patent US20210253575A1, “PYRROLIDINE AMINE COMPOUNDS FOR THE TREATMENT OF AUTOIMMUNE DISEASE” (Hoffmann-La Roche Inc., priority 2018, published 2021)

Target: T1, human TLR7 (Homo sapiens, UniProt Q9NYK1)
T1 sequence (Q9NYK1 27-1049): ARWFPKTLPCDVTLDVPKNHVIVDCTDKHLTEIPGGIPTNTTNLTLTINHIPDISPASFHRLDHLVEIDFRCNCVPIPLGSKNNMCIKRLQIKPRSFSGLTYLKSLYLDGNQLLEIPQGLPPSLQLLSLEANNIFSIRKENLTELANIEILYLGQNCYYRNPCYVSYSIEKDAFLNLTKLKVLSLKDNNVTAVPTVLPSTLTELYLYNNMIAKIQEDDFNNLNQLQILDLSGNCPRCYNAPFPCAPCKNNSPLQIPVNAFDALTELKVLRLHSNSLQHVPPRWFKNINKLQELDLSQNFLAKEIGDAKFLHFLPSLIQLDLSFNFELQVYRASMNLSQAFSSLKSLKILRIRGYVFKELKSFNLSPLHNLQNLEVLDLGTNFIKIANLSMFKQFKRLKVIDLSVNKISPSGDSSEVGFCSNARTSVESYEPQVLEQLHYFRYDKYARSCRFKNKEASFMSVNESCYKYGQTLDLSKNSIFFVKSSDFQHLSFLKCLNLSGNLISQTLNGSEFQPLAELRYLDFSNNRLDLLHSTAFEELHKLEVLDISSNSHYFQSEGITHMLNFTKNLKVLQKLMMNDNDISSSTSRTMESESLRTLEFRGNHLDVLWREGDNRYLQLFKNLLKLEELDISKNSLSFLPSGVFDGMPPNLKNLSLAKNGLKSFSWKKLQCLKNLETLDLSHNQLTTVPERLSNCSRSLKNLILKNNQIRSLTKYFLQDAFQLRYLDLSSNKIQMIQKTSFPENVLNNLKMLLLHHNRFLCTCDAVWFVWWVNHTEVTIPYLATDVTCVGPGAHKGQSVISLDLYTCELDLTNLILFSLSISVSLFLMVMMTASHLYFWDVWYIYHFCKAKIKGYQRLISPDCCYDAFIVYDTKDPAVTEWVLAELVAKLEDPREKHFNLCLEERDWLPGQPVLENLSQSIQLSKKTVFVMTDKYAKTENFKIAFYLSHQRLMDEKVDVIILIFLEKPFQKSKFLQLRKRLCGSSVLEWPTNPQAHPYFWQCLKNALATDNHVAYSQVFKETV
Assay: HEK293-Blue-hTLR-7 cells assay (SEAP reporter, R848 stimulation)
Assay type: cell-based
Settings: HEK293-Blue-hTLR7 cells, R848 ligand, 20 hrs incubation
Outline: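 Antagonism measured in stable HEK293-Blue-hTLR7 cells carrying an NF-κB/AP-1-driven SEAP reporter, stimulated with R848 (10 µL of 20 µM stock) with serially diluted compound, 1% DMSO, 20 h at 37 °C. Supernatant SEAP read with QUANTI-Blue after 2 h at 37 °C, absorbance 620–655 nm.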

First: N#Cc1ccc(N2C[C@H](CN3CC4CNCC4C3)[C@@H](C(F)(F)F)C2)c2nccnc12 (stereo partly drawn) [Example 76, 8-[(3S,4R)-3-(2,3,3a,4,6,6a-hexahydro-1H-pyrrolo[3,4-c]pyrrol-5-ylmethyl)-4-(trifluoromethyl)pyrrolidin-1-yl]quinoxaline-5-carbonitrile]
Second: N#Cc1ccc(N2C[C@H](CN3CC4CCC3CN4)[C@@H](C(F)(F)F)C2)c2nccnc12 (stereo partly drawn) [Example 77, 8-[(3S,4R)-3-(2,5-diazabicyclo[2.2.2]octan-2-ylmethyl)-4-(trifluoromethyl)pyrrolidin-1-yl]quinoxaline-5-carbonitrile]
The IC50 of the first is 1.6-fold higher: 21 nM for the first, 13 nM for the second.

`N#Cc1ccc(N2C[C@H](CN3CCCC(F)(CN)C3)[C@@H](C(F)(F)F)C2)c2nccnc12` (stereo partly drawn) [Example 78, 8-[(3S,4R)-3-[[3-(aminomethyl)-3-fluoro-1-piperidyl]methyl]-4-(trifluoromethyl)pyrrolidin-1-yl]quinoxaline-5-carbonitrile] and `N#Cc1ccc(N2C[C@H](CN3CCC(CCN)CC3)[C@@H](C(F)(F)F)C2)c2nccnc12` [Example 79, 8-[(3S,4R)-3-[[4-(2-aminoethyl)-1-piperidyl]methyl]-4-(trifluoromethyl)pyrrolidin-1-yl]quinoxaline-5-carbonitrile] are within 1.5-fold of each other in IC50: 32 nM for the first, 37 nM for the second.

Going from `CN(C)C1CCN(C[C@H]2CN(c3ccc(C#N)c4nccnc34)C[C@@H]2C(F)(F)F)CC1` [Example 80, 8-[(3S,4R)-3-[[4-(dimethylamino)-1-piperidyl]methyl]-4-(trifluoromethyl)pyrrolidin-1-yl]quinoxaline-5-carbonitrile] to `CNCC1CCN(C[C@H]2CN(c3ccc(C#N)c4nccnc34)C[C@@H]2C(F)(F)F)CC1` [Example 81, 8-[(3S,4R)-3-[[4-(methylaminomethyl)-1-piperidyl]methyl]-4-(trifluoromethyl)pyrrolidin-1-yl]quinoxaline-5-carbonitrile], the IC50 rises from 14 nM to 32 nM (2.3-fold).

`CN(C)C[C@@H]1CCN(C[C@H]2CN(c3ccc(C#N)c4nccnc34)C[C@@H]2C(F)(F)F)C1` [Example 82, 8-[(3S,4R)-3-[[(3S)-3-[(dimethylamino)methyl]pyrrolidin-1-yl]methyl]-4-(trifluoromethyl)pyrrolidin-1-yl]quinoxaline-5-carbonitrile] was tested, and the IC50 was 106 nM.
